{
  "source": "patent US8927530B2",
  "about": "“Therapeutic combination comprising a PLK1 inhibitor and an antineoplastic agent” (priority 2009, dated 2015)",
  "key": {"[1]": {"test_system": "HT29 human colon cancer tumors", "details": "for T-C: delay to reach 1 g tumor", "method": "Balb, Nu/Nu male mice, from Harlan (Italy), were maintained, in agreement with the European Communities Council Directive no. […] Fragments of HT29 human colon cancer tumors were implanted subcutaneously. The treatment started when tumors were palpable. […] Tumor growth and body weight were measured every 3 days. Tumor growth was assessed by caliper. The two diameters were recorded and the tumor weight was calculated according to the following formula: length (mm)×width^2/2. […] This delay (T-C value) was defined as the difference of time (in days) required for the treatment group (T) and the control group (C) tumors to reach a predetermined size (1 g). Sinergy was identified when T-C of drug combination is >of addition of T-C value of single agents, additivity is identified when T-C value of drug combination is equal to addition of T-C value of single agents.\n(§1) Toxicity was evaluated on the basis of body weigh reduction."}, "[2]": {"test_system": "HT29 human colon cancer tumors", "details": "for T-C: delay to reach 1 g tumor", "method": "Balb, Nu/Nu male mice, from Harlan (Italy), were maintained, in agreement with the European Communities Council Directive no.\nFragments of HT29 human colon cancer tumors were implanted subcutaneously. The treatment started when tumors were palpable. […] Tumor growth and body weight were measured every 3 days. Tumor growth was assessed by caliper. The two diameters were recorded and the tumor weight was calculated according to the following formula: length (mm)×width^2/2. […] This delay (T-C value) was defined as the difference of time (in days) required for the treatment group (T) and the control group (C) tumors to reach a predetermined size (1 g). Sinergy was identified when T-C of drug combination is >of addition of T-C value of single agents.\nas §1", "remark": "listed apart in the source"}, "[3]": {"test_system": "HT29 human colon cancer tumors", "test": "In vivo activity of combination with bevacizumab, HT29 tumors implanted subcutaneously", "details": "for T-C: delay to reach 1 g tumor"}, "[4]": {"test_system": "AML-PS acute myeloid leukaemia cells", "details": "for Median Survival Time: Control 34", "method": "SCID female mice, from Harlan (Italy), were maintained, in agreement with the European Communities Council Directive no. […] 5×10^6 in 0.2 ml AML-PS acute myeloid leukaemia cells were injected intravenously in mice.\nCytarabine was administered by intraperitoneal route at the dose of 75 mg/kg on days 2, 3, 4, 5, 6, 14, 15, 16, 17, 18, 26, 27, 28, 29, 30, 38, 39, 40, 41 42. […] Body weight was measured every 3 days. The effect of the antitumor treatment was evaluated determining the Median Survival Time of treated animals respect to control group."}, "[5]": {"details": "Compound of formula (I) 45 mg/kg oral, day 2, 3, 4, 6, 7, 8"}, "[6]": {"details": "male, Balb Nu/Nu, mouse, in vivo, po, 45 mg/kg"}},
  "note": "Like-named read-outs stand apart in the source and are kept apart here.",
  "data": [
    {"compound": "O=c1[nH]cc(F)c(=O)[nH]1", "note": "[5FU, 5-fluorouracil, reference compound]", "values": [
      {"measurement": "T-C", "setting": "[1]; 5FU 50 mg/kg intravenous, days 1, 5, 9", "result": 11.4, "unit": "days"}
    ]},
    {"compound": "CCc1c2c(nc3ccc(OC(=O)N4CCC(N5CCCCC5)CC4)cc13)-c1cc3c(c(=O)n1C2)COC(=O)[C@]3(O)CC", "note": "[CPT11, reference compound]", "values": [
      {"measurement": "T-C", "setting": "[2]; CPT11 45 mg/kg intravenous, days 1, 5, 9", "result": 12.3, "unit": "days"}
    ]},
    {"compound": "CN1CCN(c2ccc(OC(F)(F)F)c(Nc3ncc4c(n3)-c3c(c(C(N)=O)nn3CCO)CC4)c2)CC1", "note": "[Compound of formula (I)]", "values": [
      {"measurement": "T-C", "setting": "[2]; [5]", "result": 10.3, "unit": "days"},
      {"measurement": "Toxicity", "setting": "[2]; [6]", "result": "0/7"},
      {"measurement": "T-C", "setting": "[1]; [5]", "result": 10.3, "unit": "days"},
      {"measurement": "Toxicity", "setting": "[1]; [6]", "result": "0/7"},
      {"measurement": "T-C", "setting": "[3]; Compound of formula (I) 45 mg/kg oral, day 2, 3, 4, 6, 7, 8, 10, 11, 12", "result": 8.5, "unit": "days"},
      {"measurement": "T-C", "setting": "[3]; Compound of formula (I) 60 mg/kg oral, day 2, 3, 4, 6, 7, 8, 10, 11, 12", "result": 16.8, "unit": "days"},
      {"measurement": "Toxicity", "setting": "[3]; [6]", "result": "0/7"},
      {"measurement": "Toxicity", "setting": "[3]; male, Balb Nu/Nu, mouse, in vivo, po, 60 mg/kg", "result": "0/7"},
      {"measurement": "Median Survival Time", "setting": "[4]; Compound of formula (I) 120 mg/kg oral, day 2, 3, 14, 15, 26, 27, 38, 39", "result": 49.5},
      {"measurement": "Toxicity", "setting": "[4]; female, SCID, mouse, in vivo, po, 120 mg/kg", "result": "0/7"}
    ]},
    {"compound": "Nc1ccn([C@@H]2O[C@H](CO)[C@@H](O)[C@@H]2O)c(=O)n1", "note": "[Cytarabine, cytarabine, reference compound]", "values": [
      {"measurement": "Median Survival Time", "setting": "[4]; cytarabine 75 mg/kg intraperitoneal, days 2-6, 14-18, 26-30, 38-42", "result": 66.5}
    ]},
    {"compound": "bevacizumab [reference compound]", "values": [
      {"measurement": "Toxicity", "setting": "[3]; Bevacizumab 20 mg/kg, intravenous route (footnote), days 1, 5, 9, 13, body weight reduction", "result": "0/7"},
      {"measurement": "T-C", "setting": "[3]; Bevacizumab 20 mg/kg, intravenous route (footnote), days 1, 5, 9, 13", "result": 4.7, "unit": "days"}
    ]}
  ]
}
